The values that follow come from patent US4642379A, “Intermediates for anticonvulsant agents” (Eli Lilly and Company, priority 1985, dated 1987).

The first data set concerns electroshock induced convulsion. The data set can be described thus: electroshock induced convulsion inhibition assay (E.S.). It is filed as in vivo, mice (Cox standard strain albino male). The note with it: Mus musculus; oral dose (gavage), mice; 0.1 second, 50 milliampere electroshock through corneal electrodes; at time of optimal response. The method, then: In the elctroshock induced convulsion inhibition assay (E.S.), the compound to be tested was suspended in acacia and administered by gavage to each of ten Cox standard strain albino male mice (18-24 g) at the dose level being investigated. […] The animals were examined and evaluated immediately after the electroshock for the occurrence of clonic, flexor tonic, or extensor tonic convulsions, or death and the ED50 was determined for each compound as the dose which inhibited the occurrence of extensor tonic convulsions in one half of the animals immediately after the electroshock.
`CC(=O)Nc1ccc(C(=O)NC(C)c2ccccc2)cc1` (stereo not drawn) [Example 6, 4-(Acetylamino)-N-(1-phenylethyl)benzamide] registered an ED50 of 54 mg/kg. With `CCN(CC)CC(=O)Nc1ccc(C(=O)Nc2c(C)cccc2C)cc1.O=C(O)C(=O)O` [Example 14, 4-([(Diethylamino)acetyl]amino)-N-(2,6-dimethylphenyl)benzamide ethanedioate], the ED50 was 3.6 mg/kg. `Cc1cccc(C)c1NC(=O)c1ccc(NC(=O)CN2CCOCC2)cc1` [Example 18, N-[4-([(2,6-Dimethylphenyl)amino]carbonyl)phenyl]-4-morpholineacetamide] showed a 50% effective dose (ED50) of 17.5 mg/kg. Turning to `Cc1cccc(C)c1NC(=O)c1ccc(NC(=O)C(C)C)cc1` [Example 3, N-(2,6-dimethylphenyl)-4-[(2-methyl-1-oxopropyl)amino]benzamide], the ED50 turned out to be 8.2 mg/kg. Still for that read-out and setting: the same measure for `CCNCC(=O)Nc1ccc(C(=O)Nc2c(C)cccc2C)cc1` [Example 23, N-(2,6-Dimethylphenyl)-4-([(ethylamino)acetyl]amino)benzamide]: 3.2 mg/kg; for `Cc1cccc(C)c1NC(=O)c1ccc(NC(=O)CCN2CCCC2)cc1` [Example 19, N-[4-([(2,6-Dimethylphenyl)amino]carbonyl)phenyl]-1-pyrrolidinepropanamide]: 26.9 mg/kg. The same measure, in the same setting: the figure for `CC(=O)Nc1ccc(C(=O)Nc2c(C)cccc2C)cc1C` [Example 11, 4-(Acetylamino)-N-(2,6-dimethylphenyl)-3-methylbenzamide] is 4.5 mg/kg; for `Cc1cccc(C)c1NC(=O)c1ccc(NC(=O)CN2CCCCCC2)cc1` [Example 21, N-[4-([(2,6-Dimethylphenyl)amino]carbonyl)phenyl]hexahydro-1-H-azepine-1-acetamide] it is 5.1 mg/kg. `Cc1cccc(C)c1NC(=O)c1ccc(NC(=O)CN2CCCCC2)cc1` [Example 15, N-[4-([(2,6-Dimethylphenyl)amino]carbonyl)phenyl]-1-piperidineacetamide] came in with an ED50 of 9.5 mg/kg. In the case of `Cc1cccc(C)c1NC(=O)c1ccc(NC(=O)CN(C)C)cc1` [Example 12, 4-([(Dimethylamino)acetyl]amino)-N-(2,6-dimethylphenyl)benzamide], the ED50 amounted to 8 mg/kg. Turning to `Cc1cccc(C)c1NC(=O)c1ccc(NC(=O)CN2CCN(C)CC2)cc1` [Example 17, N-[4-([(2,6-Dimethylphenyl)amino]carbonyl)phenyl]-4-methyl-1-piperazineacetamide], the ED50 was above 112 mg/kg. `CC(=O)Nc1ccc(C(=O)Nc2c(C)cccc2C)cc1` [Example 1, 4-(Acetylamino)-N-(2,6-dimethylphenyl)benzamide]: the ED50 came to 3.6 mg/kg. Consider `CC(=O)Nc1ccc(C(=O)N[C@@H](C)c2ccccc2)cc1` [Example 4, (S)-4-(acetylamino)-N-(1-phenylethyl)benzamide], for which the ED50 turned out to be 22.2 mg/kg. As to `Cc1cccc(C)c1NC(=O)c1ccc(NC(=O)C(C)N2CCCC2)cc1` (stereo not drawn) [Example 20], the median effective dose (ED50) came out at 42.5 mg/kg. Turning to `CCNCC(=O)Nc1ccc(C(=O)NC(C)c2ccccc2)cc1.Cl` (stereo not drawn) [Example 22, 4-([(Ethylamino)acetyl]amino)-N-(1-phenylethyl)benzamide hydrochloride], it took a dose of 28 mg/kg to reach the 50% effect level (ED50). The same measure, in the same setting: the figure for `Cc1cccc(C)c1NC(=O)c1ccc(NC(=O)CN2CCCC2)cc1` [Example 16, N-[4-([(2,6-Dimethylphenyl)amino]carbonyl)phenyl]-1-pyrrolidineacetamide] is 3.75 mg/kg; for `CCC(=O)Nc1ccc(C(=O)Nc2c(C)cccc2C)cc1` [Example 2, N-(2,6-dimethylphenyl)-4-[(1-oxopropyl)amino]benzamide] it is 10.5 mg/kg; for `CNCC(=O)Nc1ccc(C(=O)Nc2c(C)cccc2C)cc1.O=C(O)C(=O)O` [Example 13, N-(2,6-dimethylphenyl)-4-([(methylamino)acetyl]amino)benzamide ethanedioate] it is 6.3 mg/kg.

Still in this data set, the particulars now being: oral dose (gavage), mice; 0.1 second, 50 milliampere electroshock through corneal electrodes; at time of optimal response.
For the compound `CC(=O)Nc1ccc(C(=O)N[C@H](C)c2ccccc2)cc1` [Example 5], the “Electroshock ED50 (mg/kg)” value is “ca. 100 mg/kg”.

The data set is the same for the next values; noted with them: time between oral dosing and electroshock.
For `CC(=O)Nc1ccc(C(=O)N[C@H](C)c2ccccc2)cc1` [Example 5], the “Time After dosing (minutes) providing an optimal response” value turned out to be 60 min.

Tested on in the next data set: not given
Test: not given
The conditions noted are these: man; cited from earlier work.
`O=C1NC(=O)C(c2ccccc2)(c2ccccc2)N1` [phenytoin]: the “plasma level at which ataxia is obvious” value was 30000 ng/mL, the “plasma level at which lethargy is apparent” value is reported as “about 40 mcg/ml”, the “plasma level at which nystagmus is seen” value is “around 20 mcg/ml” and the “plasma level at which seizures are controlled” value was at least 10 µg/mL.
